Values of other authors as cited in patent US6911441B2, “Prolonged release pharmaceutical composition” (Akzo Nobel N.V., priority 2002, dated 2005).
In brackets after ≈: the same amount, converted by molar mass.

Test system: Mannheimia haemolytica

CO/N=C(\C(=O)N[C@@H]1C(=O)N2C(C(=O)[O-])=C(C[n+]3cccc4c3CCCC4)CS[C@H]12)c1csc(N)n1 [Cefquinome]
MIC90: 0.25 µg/mL (≈ 0.473 µM)
